From patent US11051515B2, “3-acyl-benzamides and their use as herbicides” (Bayer Aktiengesellschaft, priority 2017, dated 2021)

Columns and labels:
ECHCG [1] = assay: Pre-emergence action against ECHCG; format: in vivo, Echinochloa crus-galli; conditions: pre-emergence, dosage 320 g/ha, scored visually after 3 weeks vs untreated controls; for pest or weed control at 320 g/ha: Echinochloa crus-galli, 504 h, read-out: Pre-emergence action against ECHCG (herbicidal activity)
Outline: (§1)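 Seeds sown in sandy loam in wood-fiber pots and covered with soil. Greenhouse growth; visual damage scored after 3 weeks versus untreated controls (100% = dead, 0% = like control).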

AMARE [2] = assay: Pre-emergence action against AMARE; format: in vivo, Amaranthus retroflexus; conditions: pre-emergence, dosage 320 g/ha, scored visually after 3 weeks vs untreated controls; for pest or weed control at 320 g/ha: Amaranthus retroflexus, 504 h, read-out: Pre-emergence action against AMARE (herbicidal activity)
Outline: as §1

ABUTH [3] = assay: Pre-emergence action against ABUTH; format: in vivo, Abutilon theophrasti; conditions: pre-emergence, dosage 320 g/ha, scored visually after 3 weeks vs untreated controls; for pest or weed control at 320 g/ha: Abutilon theophrasti, 504 h, read-out: Pre-emergence action against ABUTH (herbicidal activity)
Outline: as §1

VERPE [4] = assay: Post-emergence action against VERPE; format: in vivo, Veronica persica; conditions: dosage 80 g/ha; for pest or weed control at 80 g/ha: Veronica persica, 504 h
Outline: (§2)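 Weeds grown in sandy loam in greenhouse, treated at one-leaf stage (2–3 weeks after sowing) with WP or EC formulations sprayed as aqueous suspension/emulsion at 600 to […] water with 0.2% wetting agent. Visual rating after about 3 weeks versus untreated controls, as % herbicidal action (100% = plants dead, 0% = like control).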

PHBPU = assay: Post-emergence action against PHBPU; format: in vivo, Pharbitis purpurea; conditions: post-emergence, dosage 80 g/ha; for pest or weed control at 80 g/ha: Ipomoea purpurea, 504 h
Outline: as §2

STEME [5] = assay: Pre-emergence action against STEME; format: in vivo, Stellaria media; conditions: Dosage 320 g/ha, pre-emergence; for pest or weed control at 320 g/ha: Stellaria media, 504 h
Outline: as §1

ECHCG [6] = assay: Post-emergence action against ECHCG; format: in vivo, Echinochloa crus-galli; conditions: post-emergence, dosage 80 g/ha, visual assessment about 3 weeks after treatment vs untreated controls; for pest or weed control at 80 g/ha: Echinochloa crus-galli, 504 h, read-out: Post-emergence action against ECHCG (herbicidal action in percent)
Outline: as §2

ABUTH [7] = assay: Post-emergence action against ABUTH; format: in vivo, Abutilon theophrasti; conditions: post-emergence, dosage 80 g/ha, visual assessment about 3 weeks after treatment vs untreated controls; for pest or weed control at 80 g/ha: Abutilon theophrasti, 504 h, read-out: Post-emergence action against ABUTH (herbicidal action in percent)
Outline: as §2

SETVI [8] = assay: Post-emergence action against SETVI; format: in vivo, Setaria viridis; conditions: Setaria viridis, 504 h; post-emergence, dosage 80 g/ha, visual assessment about 3 weeks after treatment vs untreated controls; read-out: Post-emergence action against SETVI (herbicidal action in percent)
Method: (§3) Seeds of monocotyledonous and dicotyledonous weed and crop plants are laid out in sandy loam soil in wood-fiber pots, covered with soil and cultivated in a greenhouse under good growth conditions. 2 to 3 weeks after sowing, the test plants are treated at the one-leaf stage. The compounds of the invention, formulated in the form of wettable powders (WP) or as emulsion concentrates (EC), are then sprayed onto the green parts of the plants in the form of an aqueous suspension or emulsion at a water application rate equating to […], with addition of 0.2% wetting agent. After the test plants have been left to stand in the greenhouse under optimal growth conditions for about 3 weeks, the action of the preparations is assessed visually in comparison to untreated controls (herbicidal action in percent (%): 100% activity=the plants have died, 0% activity=like control plants). […] At the same time, inventive compounds leave Gramineae crops such as barley, wheat, rye, millet/Sorghum, corn or rice virtually undamaged when applied post-emergence, even at high active ingredient dosages. In addition, some substances are also harmless to dicotyledonous crops such as soya, cotton, oilseed rape, sugar beet or potatoes. Some of the compounds according to the invention have high selectivity and are therefore suitable for controlling unwanted vegetation in agricultural crops by the post-emergence method. The data of Tables B18 to B34 below illustrate, in an exemplary manner, the […] herbicidal action of the compounds according to the invention, the herbicidal activity being stated in percent.

VIOTR [9] = assay: Post-emergence action against VIOTR; format: in vivo, Viola tricolor; conditions: post-emergence, dosage 80 g/ha; for pest or weed control at 80 g/ha: Viola tricolor, 504 h
Outline: as §2

MATIN [10] = assay: Post-emergence action against MATIN; format: in vivo, Matricaria inodora; conditions: post-emergence, dosage 80 g/ha, visual assessment about 3 weeks after treatment vs untreated controls; for pest or weed control at 80 g/ha: Tripleurospermum inodorum, 504 h, read-out: Post-emergence action against MATIN (herbicidal action in percent)
Outline: as §2

VERPE [11] = assay: Pre-emergence action against VERPE; format: in vivo, Veronica persica; conditions: Dosage 320 g/ha, pre-emergence; for pest or weed control at 320 g/ha: Veronica persica, 504 h
Outline: as §1

CYPES [12] = assay: Post-emergence action against CYPES; format: in vivo, Cyperus esculentus; conditions: post-emergence, dosage 80 g/ha, visual assessment about 3 weeks after treatment vs untreated controls; for pest or weed control at 80 g/ha: Cyperus esculentus, 504 h, read-out: Post-emergence action against CYPES (herbicidal action in percent)
Method: as §3

MATIN [13] = assay: Pre-emergence action against MATIN; format: in vivo, Matricaria inodora; conditions: Dosage 320 g/ha, pre-emergence; for pest or weed control at 320 g/ha: Tripleurospermum inodorum, 504 h
Outline: as §1

STEME [14] = assay: Post-emergence action against STEME; format: in vivo, Stellaria media; conditions: post-emergence, dosage 80 g/ha; for pest or weed control at 80 g/ha: Stellaria media, 504 h
Outline: as §2

AMARE [15] = assay: Post-emergence action against AMARE; format: in vivo, Amaranthus retroflexus; conditions: post-emergence, dosage 80 g/ha, visual assessment about 3 weeks after treatment vs untreated controls; for pest or weed control at 80 g/ha: Amaranthus retroflexus, 504 h, read-out: Post-emergence action against AMARE (herbicidal action in percent)
Outline: as §2

VIOTR [16] = assay: Pre-emergence action against VIOTR; format: in vivo, Viola tricolor; conditions: Dosage 320 g/ha, pre-emergence; for pest or weed control at 320 g/ha: Viola tricolor, 504 h
Outline: as §1

SETVI [17] = assay: Pre-emergence action against SETVI; format: in vivo, Setaria viridis; conditions: Setaria viridis, 504 h; pre-emergence, dosage 320 g/ha, scored visually after 3 weeks vs untreated controls; read-out: SETVI (Table B8, pre-emergence herbicidal activity)
Outline: as §1

CYPES [18] = assay: Pre-emergence action against CYPES; format: in vivo, Cyperus esculentus; conditions: Cyperus esculentus, 504 h; pre-emergence, dosage 320 g/ha, scored visually after 3 weeks vs untreated controls; read-out: Pre-emergence action against CYPES (herbicidal activity)
From the text: Seeds of monocotyledonous and dicotyledonous weed plants and crop plants are laid out in sandy loam soil in wood-fiber pots and covered with soil. The compounds of the invention, formulated in the form of wettable powders (WP) or as emulsion concentrates (EC), are then applied to the surface of the covering soil in the form of an aqueous suspension or emulsion at a water application rate equating to […], with addition of 0.2% wetting agent. After the treatment, the pots are placed in a greenhouse and kept under good growth conditions for the trial plants. The damage to the test plants is scored visually after a test period of 3 weeks by comparison with untreated controls (herbicidal activity in percent (%): 100% activity=the plants have died, 0% activity=like control plants).

ALOMY = assay: Pre-emergence action against ALOMY; format: in vivo, Alopecurus myosuroides; conditions: Alopecurus myosuroides, 504 h; dosage 320 g/ha; pre-emergence; scored visually after 3 weeks vs untreated controls; 100% = plants have died, 0% = like control plants; read-out: Pre-emergence action against ALOMY (herbicidal activity in percent)
Outline: as §1

| SMILES | pest or weed control at 320 g/ha (ECHCG [1]) [%] | pest or weed control at 320 g/ha (AMARE [2]) [%] | pest or weed control at 320 g/ha (ABUTH [3]) [%] | pest or weed control at 80 g/ha (VERPE [4]) [%] | pest or weed control at 80 g/ha (PHBPU) [%] | pest or weed control at 320 g/ha (STEME [5]) [%] | pest or weed control at 80 g/ha (ECHCG [6]) [%] | pest or weed control at 80 g/ha (ABUTH [7]) [%] | pest or weed control at 80 g/ha (SETVI [8]) [%] | pest or weed control at 80 g/ha (VIOTR [9]) [%] | pest or weed control at 80 g/ha (MATIN [10]) [%] | pest or weed control at 320 g/ha (VERPE [11]) [%] | pest or weed control at 80 g/ha (CYPES [12]) [%] | pest or weed control at 320 g/ha (MATIN [13]) [%] | pest or weed control at 80 g/ha (STEME [14]) [%] | pest or weed control at 80 g/ha (AMARE [15]) [%] | pest or weed control at 320 g/ha (VIOTR [16]) [%] | pest or weed control at 320 g/ha (SETVI [17]) [%] | other results |
| --- | --- | --- | --- | --- | --- | --- | --- | --- | --- | --- | --- | --- | --- | --- | --- | --- | --- | --- | --- |
| CC(=O)c1c(C)ccc(C(=O)Nc2nnnn2C)c1Cl [1-134] | 90 | 100 | 90 | 100 | 90 | 90 | 90 | 80 | 80 | 100 | 100 | 90 | 90 | 100 | 100 | 90 | – | – | – |
| Cc1ccc(C(=O)Nc2nnnn2C)c(Cl)c1C(=O)C1CC1 [1-136] | – | 80 | – | 90 | 90 | 100 | – | – | – | 90 | 90 | 80 | 80 | 100 | 100 | 90 | – | – | – |
| Cn1nnnc1NC(=O)c1ccc(C(F)(F)F)c(C(=O)C(F)(F)F)c1Cl [1-162] | 100 | 90 | 100 | – | 100 | 100 | 90 | 100 | 80 | 100 | – | 80 | 80 | 80 | 100 | 100 | 100 | 100 | – |
| CC(C)C(=O)c1c(Cl)ccc(C(=O)Nc2nnnn2C)c1Cl [1-280] | 100 | 100 | 90 | 90 | 80 | 90 | 90 | 80 | 80 | 90 | 90 | 90 | 90 | 100 | 100 | 90 | 100 | 90 | pest or weed control at 320 g/ha (CYPES [18]): 100%; pest or weed control at 320 g/ha (ALOMY): 90% |
| CCCn1nnnc1NC(=O)c1ccc(C)c(C(C)=O)c1Cl [3-134] | – | – | – | – | – | – | – | – | – | – | – | – | – | – | – | – | – | – | Pre-emergence action against ECHCG (herbicidal activity) (ECHCG [1]): 100%; Pre-emergence action against AMARE (herbicidal activity) (AMARE [2]): 90%; Pre-emergence action against ABUTH (herbicidal activity) (ABUTH [3]): 100%; Pre-emergence action against VIOTR (VIOTR [16]): 100%; Post-emergence action against VERPE (VERPE [4]): 90; Post-emergence action against PHBPU (PHBPU): 90; Pre-emergence action against STEME (STEME [5]): 90%; Post-emergence action against ECHCG (herbicidal action in percent) (ECHCG [6]): 90%; Post-emergence action against ABUTH (herbicidal action in percent) (ABUTH [7]): 80%; Post-emergence action against VIOTR (VIOTR [9]): 90; Post-emergence action against MATIN (herbicidal action in percent) (MATIN [10]): 90%; Pre-emergence action against VERPE (VERPE [11]): 80%; Post-emergence action against CYPES (herbicidal action in percent) (CYPES [12]): 80%; Pre-emergence action against MATIN (MATIN [13]): 90%; Post-emergence action against STEME (STEME [14]): 100; Post-emergence action against AMARE (herbicidal action in percent) (AMARE [15]): 90% |
